# Measured values reported in patent US7405317B2, “Phosphate-bearing prodrugs of sulfonyl hydrazines as hypoxia-selective antineoplastic agents” (priority 2004, dated 2008).
# Legend:
# [1] = tested on: CHO-SCS-II (non-transfected parental line); test: Aerobic/hypoxic cell survival, parental CHO cells; format: cell-based; details: drug 10 μM
# Experimental: (§1) EMT6 or CHO (parental or human cytochrome P-450 reductase transfected) cells, seeded in glass milk dilution bottles, were gassed for 2 hours through a rubber septum fitted with 13 gauge (inflow) and 18 gauge (outflow) needles with a mixture of 5% CO2, oxygen at various concentrations, with the balance of the mixture made up of nitrogen, to establish various hypoxic conditions. Drugs were then injected without disrupting hypoxia. After two hours, cells were collected and plated in a clonogenic assay to determine the surviving fraction, compared to untreated controls.
# (§2) For in vitro analysis, KS119W must be converted to KS119OH (1) in an AP-catalyzed reaction shown above in FIG. 2, as the phosphorylated parent drug cannot cross cell membranes. KS119OH is then used in all subsequent in vitro studies shown in this section.
# (§3) Like KS119, cytochrome P-450 reductase can activate KS1190H under hypoxic conditions.
# [2] = Maximum tolerated dose (MTD) finding; format: in vivo, mice
# Experimental: In order to fairly select a better compound from two enantiomers of KS119W for future clinical development, finding maximum tolerated dose (MTD) for VNP40541 (R-form) and VNP40551 (S-form) was conducted and the results were shown as Table 3.
# [3] = tested on: SHP77 human lung carcinoma; test: In vivo anti-tumor activity, SHP77 xenograft; design: species or system mice; details: SHP77/Scid-Beige; dose VNP40541 110 mpk, VNP40551 85 mpk
# Experimental: The anti-tumor effects of aforementioned prodrugs are evaluated in both solid and liquid tumor models, including the B16-F10 murine melanoma, HTB177 human lung carcinoma models, DLD1 human colon carcinoma, EMT-6 murine mammary gland carcinoma, L1210 murine leukemia, lymphoma, prostate cancer, pancreatic cancer, and head-and-neck cancer. The prodrugs are given intravenously, orally, or intraperitoneally at doses from 10 mg/kg to 2000 mg/kg; they are give at different dosing schedules such as 4 times daily, once daily, or once every several days for up to 60 doses. Testing tumor cells were implanted subcutaneously into mice, which were randomized into groups immediately after tumor cell implantation (Day 0). Mice were injected intraperitoneally (ip) with either a bolus injection of 0.1 mL PBS or drug. The treatment was carried out in a designed dosing schedule. Tumor measurement in three dimensions was determined once a week with the formula L×H×W/2, where L, H, and W represent length, height, and width, respectively. The toxicity of these drugs in mice was mild as determined by body weight loss and animal appearance.
# Efficacy of KS119 was studied in murine tumor model and human xenograft models. EMT-6 murine mammary carcinoma cells (3×10^5 cells/mouse) were implanted subcutaneously into Balb/c mice. […]
# [4] = Short term stability as a function of pH and citrate buffer (HPLC); format: physicochemical; details: 20 mg/mL
# Experimental: The stabilities of VNP40541 were investigated. The sample (20 mg/mL) was dissolved in 20 mM citric acid and titrated to pH 2.0, pH 3.0, pH 4.0, pH 5.0, pH 6.0, and pH 7.0. To control for buffer catalysis, the drug was also titrated to pH 2.0, pH 5.0, and pH 6.0 in the absence of citrate. The samples were stored at 40° C. for 3 hours, 24 hours, and 3 days, and at room temperature for 24 hours, 3 days. Upon completion of each time point, samples were placed in a freezer at −15° C. Control samples of each preparation were also stored in the freezer. Each sample was analyzed by HPLC repetitively, at various time points, to determine the concentration of the respective drug.
# [5] = tested on: CHO-450red (human cytochrome P-450 reductase transfected CHO cells); test: Aerobic/hypoxic cell survival, cytochrome P-450 reductase transfected CHO cells; format: cell-based; details: drug 10 μM
# Experimental: as §1, §2, §3
structure (smiles),measurement,setting,value
C[C@@H](OC(=O)N(N(CCCl)S(C)(=O)=O)S(C)(=O)=O)c1ccc([N+](=O)[O-])c(OP(=O)(O)O)c1 [VNP40541],Surviving fraction at 0.1% oxygen,[1]; 0.1% oxygen,0.04737
same,Surviving fraction in air,[1]; air,1.086
same,MTD,"[2]; BALB/c mice, × 5",100 mpk
same,MTD,"[2]; Nude CD-1 mice, × 10",140 mpk
same,MTD,"[2]; Scid/Beige mice, × 8",110 mpk
same,Inhibition (%),[3],83%
same,"Assay (HPLC, relative to control samples stored at −15° C.)","[4]; pH 2.0, citrate 20 mM, 3 hrs 40° C.",98.8%
same,"Assay (HPLC, relative to control samples stored at −15° C.)","[4]; pH 2.0, citrate 20 mM, 24 hrs 40° C.",92.3%
same,"Assay (HPLC, relative to control samples stored at −15° C.)","[4]; pH 2.0, citrate 20 mM, 24 hrs Room Temp.",99.3%
same,"Assay (HPLC, relative to control samples stored at −15° C.)","[4]; pH 2.0, citrate None, 3 hrs 40° C.",98.9%
same,"Assay (HPLC, relative to control samples stored at −15° C.)","[4]; pH 2.0, citrate None, 24 hrs 40° C.",91.7%
same,"Assay (HPLC, relative to control samples stored at −15° C.)","[4]; pH 2.0, citrate None, 24 hrs Room Temp.",99.4%
same,"Assay (HPLC, relative to control samples stored at −15° C.)","[4]; pH 3.0, citrate 20 mM, 3 hrs 40° C.",98.9%
same,"Assay (HPLC, relative to control samples stored at −15° C.)","[4]; pH 3.0, citrate 20 mM, 24 hrs 40° C.",91.3%
same,"Assay (HPLC, relative to control samples stored at −15° C.)","[4]; pH 3.0, citrate 20 mM, 24 hrs Room Temp.",99.3%
same,"Assay (HPLC, relative to control samples stored at −15° C.)","[4]; pH 4.0, citrate 20 mM, 3 hrs 40° C.",99.8%
same,"Assay (HPLC, relative to control samples stored at −15° C.)","[4]; pH 4.0, citrate 20 mM, 24 hrs 40° C.",92.2%
same,"Assay (HPLC, relative to control samples stored at −15° C.)","[4]; pH 4.0, citrate 20 mM, 24 hrs Room Temp.",100.1%
same,"Assay (HPLC, relative to control samples stored at −15° C.)","[4]; pH 5.0, citrate 20 mM, 3 hrs 40° C.",98.8%
same,"Assay (HPLC, relative to control samples stored at −15° C.)","[4]; pH 5.0, citrate 20 mM, 24 hrs 40° C.",92.2%
same,"Assay (HPLC, relative to control samples stored at −15° C.)","[4]; pH 5.0, citrate 20 mM, 24 hrs Room Temp.",99.4%
same,"Assay (HPLC, relative to control samples stored at −15° C.)","[4]; pH 5.0, citrate None, 3 hrs 40° C.",99.4%
same,"Assay (HPLC, relative to control samples stored at −15° C.)","[4]; pH 5.0, citrate None, 24 hrs 40° C.",92.5%
same,"Assay (HPLC, relative to control samples stored at −15° C.)","[4]; pH 5.0, citrate None, 24 hrs Room Temp.",99.7%
same,"Assay (HPLC, relative to control samples stored at −15° C.)","[4]; pH 6.0, citrate 20 mM, 3 hrs 40° C.",99.0%
same,"Assay (HPLC, relative to control samples stored at −15° C.)","[4]; pH 6.0, citrate 20 mM, 24 hrs 40° C.",93.8%
same,"Assay (HPLC, relative to control samples stored at −15° C.)","[4]; pH 6.0, citrate 20 mM, 24 hrs Room Temp.",98.6%
same,"Assay (HPLC, relative to control samples stored at −15° C.)","[4]; pH 6.0, citrate None, 3 hrs 40° C.",99.3%
same,"Assay (HPLC, relative to control samples stored at −15° C.)","[4]; pH 6.0, citrate None, 24 hrs 40° C.",93.8%
same,"Assay (HPLC, relative to control samples stored at −15° C.)","[4]; pH 6.0, citrate None, 24 hrs Room Temp.",100.0%
same,"Assay (HPLC, relative to control samples stored at −15° C.)","[4]; pH 7.0, citrate 20 mM, 3 hrs 40° C.",99.6%
same,"Assay (HPLC, relative to control samples stored at −15° C.)","[4]; pH 7.0, citrate 20 mM, 24 hrs 40° C.",94.0%
same,"Assay (HPLC, relative to control samples stored at −15° C.)","[4]; pH 7.0, citrate 20 mM, 24 hrs Room Temp.",99.7%
same,Surviving fraction at 0.1% oxygen,[5]; 0.1% oxygen,0.001368
same,Surviving fraction in air,[5]; air,0.9277
